Laboratory results reported in ChEMBL document CHEMBL1127286, “Quantitative structure-activity relationships study of endothelin-1 analogs” (Bioorg Med Chem Lett, 1994).

What was measured:
[1] = biological target: T1, Endothelin-1 receptor (Rattus norvegicus) (UniProt P26684); assay: Concentration required to produce 50% inhibition of binding against ET A receptor obtained from rat thoracic aortic membrane
T1 sequence (whole entry): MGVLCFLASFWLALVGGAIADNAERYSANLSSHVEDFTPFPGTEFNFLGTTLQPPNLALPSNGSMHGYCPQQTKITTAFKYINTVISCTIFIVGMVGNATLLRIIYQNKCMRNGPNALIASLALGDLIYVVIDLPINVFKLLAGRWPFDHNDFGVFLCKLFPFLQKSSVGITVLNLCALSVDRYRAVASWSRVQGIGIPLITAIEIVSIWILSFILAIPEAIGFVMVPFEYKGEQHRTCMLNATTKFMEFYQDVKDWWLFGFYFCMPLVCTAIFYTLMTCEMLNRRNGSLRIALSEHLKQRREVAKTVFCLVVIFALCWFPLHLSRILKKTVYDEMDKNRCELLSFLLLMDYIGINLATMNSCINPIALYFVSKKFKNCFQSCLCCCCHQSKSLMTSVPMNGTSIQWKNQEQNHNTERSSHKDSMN

[2] = biological target: T2, Endothelin receptor type B (Rattus norvegicus) (UniProt P21451); assay: Concentration required to produce 50% inhibition of binding against ET B receptor obtained from rat brain membrane
T2 sequence (whole entry): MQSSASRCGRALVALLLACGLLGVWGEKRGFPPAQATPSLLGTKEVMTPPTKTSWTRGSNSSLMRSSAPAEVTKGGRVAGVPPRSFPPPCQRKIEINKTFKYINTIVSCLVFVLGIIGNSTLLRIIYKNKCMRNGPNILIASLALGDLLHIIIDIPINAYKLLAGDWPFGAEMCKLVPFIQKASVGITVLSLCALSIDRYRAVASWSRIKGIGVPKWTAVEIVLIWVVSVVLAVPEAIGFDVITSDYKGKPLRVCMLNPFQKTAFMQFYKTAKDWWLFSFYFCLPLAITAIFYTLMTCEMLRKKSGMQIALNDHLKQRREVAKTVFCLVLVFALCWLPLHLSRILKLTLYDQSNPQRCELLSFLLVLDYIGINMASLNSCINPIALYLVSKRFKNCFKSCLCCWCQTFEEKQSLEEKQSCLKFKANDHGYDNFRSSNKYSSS

| pIC50 [1] | pIC50 [2] | Structure (SMILES) |
| --- | --- | --- |
| 8.06 | 9.78 | CCC(CC)C[C@@H](NC(=O)[C@@H](NC(=O)[C@H](CC(=O)O)NC(=O)[C@H](CC(C)C)NC(=O)[C@H](Cc1c[nH]cn1)NC(=O)[C@H](CS)NC(=O)[C@H](Cc1ccccc1)NC(=O)[C@H](Cc1ccc(O)cc1)NC(=O)[C@@H](NC(=O)[C@H](CS)NC(=O)[C@H](CCC(=O)O)NC(=O)[C@H](CCCCN)NC(=O)[C@H](CC(=O)O)NC(=O)[C@H](CCSC)NC(=O)[C@H](CC(C)C)NC(=O)[C@H](CO)NC(=O)[C@H](CO)NC(=O)[C@H](CS)NC(=O)[C@H](CO)NC(=O)[C@@H](N)CS)C(C)C)[C@H](C)CC)C(=O)N[C@@H](Cc1c[nH]c2ccccc12)C(=O)O |
| 6.13 | 7.55 | CC[C@@H](C)[C@H](NC(=O)[C@H](CC(=O)O)NC(=O)[C@H](CC(C)C)NC(=O)[C@H](Cc1c[nH]cn1)NC(=O)[C@H](CS)NC(=O)[C@H](Cc1ccccc1)NC(=O)[C@H](Cc1ccc(O)cc1)NC(=O)[C@@H](NC(=O)[C@H](CS)NC(=O)[C@H](CCC(=O)O)NC(=O)[C@H](CCCCN)NC(=O)[C@H](CC(=O)O)NC(=O)[C@H](CCSC)NC(=O)[C@H](CC(C)C)NC(=O)[C@H](CO)NC(=O)[C@H](CO)NC(=O)[C@H](CS)NC(=O)[C@H](CO)NC(=O)[C@@H](N)CS)C(C)C)C(=O)N[C@H](Cc1c[nH]cn1)C(=O)N[C@@H](Cc1c[nH]c2ccccc12)C(=O)O |
| 9 | 9.05 | CC[C@@H](C)[C@H](NC(=O)[C@H](CC(=O)O)NC(=O)[C@H](CC(C)C)NC(=O)[C@H](Cc1c[nH]cn1)NC(=O)[C@H](CS)NC(=O)[C@H](Cc1ccccc1)NC(=O)[C@H](Cc1ccc(O)cc1)NC(=O)[C@@H](NC(=O)[C@H](CS)NC(=O)[C@H](CCC(=O)O)NC(=O)[C@H](CCCCN)NC(=O)[C@H](CC(=O)O)NC(=O)[C@H](CCSC)NC(=O)[C@H](CC(C)C)NC(=O)[C@H](CO)NC(=O)[C@H](CO)NC(=O)[C@H](CS)NC(=O)[C@H](CO)NC(=O)[C@@H](N)CS)C(C)C)C(=O)N[C@@H](C(=O)N[C@@H](Cc1c[nH]c2ccccc12)C(=O)O)C(C)C |
